These results are taken from patent US11878965B2, “Inhibitors of peptidylarginine deiminases” (Gilead Sciences, Inc., priority 2020, dated 2024).

human PAD4, sequence (Q9UM07 2-663): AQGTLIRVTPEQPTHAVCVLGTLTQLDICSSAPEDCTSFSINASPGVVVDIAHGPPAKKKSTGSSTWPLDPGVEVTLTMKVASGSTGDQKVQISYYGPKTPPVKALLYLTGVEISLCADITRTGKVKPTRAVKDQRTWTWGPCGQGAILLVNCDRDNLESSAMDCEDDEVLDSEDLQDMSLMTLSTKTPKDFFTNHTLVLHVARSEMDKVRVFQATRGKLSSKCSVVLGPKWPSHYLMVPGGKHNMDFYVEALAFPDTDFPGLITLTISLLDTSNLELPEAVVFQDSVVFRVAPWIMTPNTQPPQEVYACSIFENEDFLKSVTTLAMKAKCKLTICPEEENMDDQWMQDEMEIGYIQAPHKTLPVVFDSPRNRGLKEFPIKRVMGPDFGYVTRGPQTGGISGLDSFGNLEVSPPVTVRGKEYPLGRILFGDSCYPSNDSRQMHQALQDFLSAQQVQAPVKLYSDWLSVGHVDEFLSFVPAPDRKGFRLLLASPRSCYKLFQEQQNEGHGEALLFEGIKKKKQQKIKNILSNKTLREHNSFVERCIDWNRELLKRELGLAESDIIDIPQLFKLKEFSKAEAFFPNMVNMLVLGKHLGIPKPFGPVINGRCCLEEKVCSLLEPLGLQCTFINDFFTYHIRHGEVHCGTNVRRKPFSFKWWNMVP

For the first experiment, the target named is human PAD4 (Homo sapiens (Human), UniProt Q9UM07). Description: In Vitro PAD4 BAEE Biochemical Assay. The following applies: human PAD4, BAEE substrate; 5 nM PAD4, 2 mM calcium chloride, 3 mM BAEE; geometric mean of multiple experiments. The essentials:
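Recombinant human PAD4 (His-SUMO tag removed, E. coli-expressed), 5 nM, preincubated with compound and 2 mM CaCl2 30 min at 25 °C in MOPS pH 7.6 with DTT; 3 mM BAEE added for 2 h at 25 °C, EDTA stop. Released ammonia detected by o-phthalaldehyde/DTT fluorescence (ex 405, em 535 nm).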
What is called IC50 is the concentration at which inhibition is half-maximal. “(S)-2-(1-(cyclopropylmethyl)-6- ((N-(difluoromethyl) methyl)sulfonamido)-1H- pyrrolo[2,3-b]pyridin-2-yl)- N-(4,4-difluoropiperidin- 3-yl)-6-fluoro- 1-methyl-1H-benzo[d] imidazole-5-carboxamide [Example 92]”: the IC50 was determined as 617 nM.

Still in this experiment, the particulars now being: recombinant PAD4 5 nM, 2 mM calcium chloride, 3 mM BAEE substrate; geometric mean of multiple experiments.
For the molecule `COc1cc(C(=O)N2C[C@H](N)[C@@H]3CC[C@H]2C3)cc2nc(-c3cc4ccc([C@@H](C)NC(=O)C5(C(F)F)CC5)nc4n3CC3CC3)n(C)c12` [Example 324, N-((R)-1-(2-(5-((1S,4R,5R)-4-amino-2-azabicyclo[3.2.1]octane-2-carbonyl)-7-methoxy-1-methyl-1H-benzo[d]imidazol-2-yl)-1-(cyclopropylmethyl)-1H-pyrrolo[2,3-b]pyridin-6-yl)ethyl)-1-(difluoromethyl)cyclopropane-1-carboxamide], the IC50 worked out at 81.1 nM.

As for `COc1cc(C(=O)N2C[C@H](N)[C@@H]3CC[C@H]2C3)cc2nc(-c3cc4ccc([C@@H](C)NC(=O)C(C)(C)F)nc4n3CC3CC3)n(C)c12` [Example 325, N-((R)-1-(2-(5-((1S,4R,5R)-4-amino-2-azabicyclo[3.2.1]octane-2-carbonyl)-7-methoxy-1-methyl-1H-benzo[d]imidazol-2-yl)-1-(cyclopropylmethyl)-1H-pyrrolo[2,3-b]pyridin-6-yl)ethyl)-2-fluoro-2-methylpropanamide], the IC50 was determined as 91.8 nM.

Consider `COc1cc(C(=O)N2C[C@H](N)[C@@H]3CC[C@H]2C3)cc2nc(-c3cc4ccc([C@@H](C)NC(=O)C5(F)CC5)nc4n3CC3CC3)n(C)c12` [Example 326, N-((R)-1-(2-(5-((1S,4R,5R)-4-amino-2-azabicyclo[3.2.1]octane-2-carbonyl)-7-methoxy-1-methyl-1H-benzo[d]imidazol-2-yl)-1-(cyclopropylmethyl)-1H-pyrrolo[2,3-b]pyridin-6-yl)ethyl)-1-fluorocyclopropane-1-carboxamide], for which the IC50 was determined as 103 nM.

For the molecule `COc1cc(C(=O)N2C[C@H](N)[C@@H]3CC[C@H]2C3)cc2nc(-c3cc4ccc([C@@H](C)NC(=O)C5(F)CCC5)nc4n3CC3CC3)n(C)c12` [Example 327, N-((R)-1-(2-(5-((1S,4R,5R)-4-amino-2-azabicyclo[3.2.1]octane-2-carbonyl)-7-methoxy-1-methyl-1H-benzo[d]imidazol-2-yl)-1-(cyclopropylmethyl)-1H-pyrrolo[2,3-b]pyridin-6-yl)ethyl)-1-fluorocyclobutane-1-carboxamide], the IC50 amounted to 88.4 nM.

Regarding `COc1cc(C(=O)N2C[C@H](N)[C@@H]3CC[C@H]2C3)cc2nc(-c3cc4ccc([C@@H](C)NC(=O)C5(C)CC(F)(F)C5)nc4n3CC3CC3)n(C)c12` [Example 328, N-((R)-1-(2-(5-((1S,4R,5R)-4-amino-2-azabicyclo[3.2.1]octane-2-carbonyl)-7-methoxy-1-methyl-1H-benzo[d]imidazol-2-yl)-1-(cyclopropylmethyl)-1H-pyrrolo[2,3-b]pyridin-6-yl)ethyl)-3,3-difluoro-1-methylcyclobutane-1-carboxamide], the IC50 was 101 nM.

As to `COc1cc(C(=O)N2C[C@H](N)[C@@H]3CC[C@H]2C3)cc2nc(-c3cc4ccc([C@@H](C)NC(=O)C(C)(C)CC(F)(F)F)nc4n3CC3CC3)n(C)c12` [Example 329, N-((R)-1-(2-(5-((1S,4R,5R)-4-amino-2-azabicyclo[3.2.1]octane-2-carbonyl)-7-methoxy-1-methyl-1H-benzo[d]imidazol-2-yl)-1-(cyclopropylmethyl)-1H-pyrrolo[2,3-b]pyridin-6-yl)ethyl)-4,4,4-trifluoro-2,2-dimethylbutanamide], the IC50 is 129 nM.

With `COc1cc(C(=O)N2C[C@H](N)[C@@H]3CC[C@H]2C3)cc2nc(-c3cc4ccc([C@@H](C)NC(=O)C(C)(C)C)nc4n3CC(C)(C)O)n(C)c12` [Example 330, N-((R)-1-(2-(5-((1S,4R,5R)-4-amino-2-azabicyclo[3.2.1]octane-2-carbonyl)-7-methoxy-1-methyl-1H-benzo[d]imidazol-2-yl)-1-(2-hydroxy-2-methylpropyl)-1H-pyrrolo[2,3-b]pyridin-6-yl)ethyl)pivalamide], the IC50 was found to be 253 nM.

Turning to `COc1cc(C(=O)N2C[C@H](N)[C@@H]3CC[C@H]2C3)cc2nc(-c3cc4ccc([C@@H](C)NC(=O)[C@]5(C)CC5(F)F)nc4n3CC3CC3)n(C)c12` [Example 331, (S)-N-((R)-1-(2-(5-((1S,4R,5R)-4-amino-2-azabicyclo[3.2.1]octane-2-carbonyl)-7-methoxy-1-methyl-1H-benzo[d]imidazol-2-yl)-1-(cyclopropylmethyl)-1H-pyrrolo[2,3-b]pyridin-6-yl)ethyl)-2,2-difluoro-1-methylcyclopropane-1-carboxamide], the IC50 is 71 nM.

On to `COc1cc(C(=O)N2C[C@H](N)[C@@H]3CC[C@H]2C3)cc2nc(-c3cc4ccc([C@@H](C)NC(=O)[C@@]5(C)CC5(F)F)nc4n3CC3CC3)n(C)c12` [Example 332, (R)-N-((R)-1-(2-(5-((1S,4R,5R)-4-amino-2-azabicyclo[3.2.1]octane-2-carbonyl)-7-methoxy-1-methyl-1H-benzo[d]imidazol-2-yl)-1-(cyclopropylmethyl)-1H-pyrrolo[2,3-b]pyridin-6-yl)ethyl)-2,2-difluoro-1-methylcyclopropane-1-carboxamide], for which the IC50 stood at 84.2 nM.
